ChEMBL document CHEMBL1145277, “Discovery of 3,3-dimethyl-5-hydroxypipecolic hydroxamate-based inhibitors of aggrecanase and MMP-13” (Bioorg Med Chem Lett, 2005)

Tested on: not listed separately
Assay: Percent inhibition against Aggrecanase at 500 nM

inhibition [%] | SMILES
19 | Cc1ccc(COc2ccc(S(=O)(=O)N3C[C@H](O)CC(C)(C)[C@@H]3C(=O)NO)cc2)cc1
57 | CC1(C)C[C@@H](O)CN(S(=O)(=O)c2ccc(OCc3cccc(Br)c3)cc2)[C@H]1C(=O)NO
78 | CC(C)c1ccccc1COc1ccc(S(=O)(=O)N2C[C@H](O)CC(C)(C)[C@@H]2C(=O)NO)cc1

The remaining lines, values behind:

SMILES | inhibition [%]
Cc1cnsc1COc1ccc(S(=O)(=O)N2C[C@H](O)CC(C)(C)[C@@H]2C(=O)NO)cc1 | 55
Cc1nscc1COc1ccc(S(=O)(=O)N2C[C@H](O)CC(C)(C)[C@@H]2C(=O)NO)cc1 | 76

Molecular target: T1, Interstitial collagenase (Homo sapiens, UniProt P03956)
T1 sequence (P03956 whole entry): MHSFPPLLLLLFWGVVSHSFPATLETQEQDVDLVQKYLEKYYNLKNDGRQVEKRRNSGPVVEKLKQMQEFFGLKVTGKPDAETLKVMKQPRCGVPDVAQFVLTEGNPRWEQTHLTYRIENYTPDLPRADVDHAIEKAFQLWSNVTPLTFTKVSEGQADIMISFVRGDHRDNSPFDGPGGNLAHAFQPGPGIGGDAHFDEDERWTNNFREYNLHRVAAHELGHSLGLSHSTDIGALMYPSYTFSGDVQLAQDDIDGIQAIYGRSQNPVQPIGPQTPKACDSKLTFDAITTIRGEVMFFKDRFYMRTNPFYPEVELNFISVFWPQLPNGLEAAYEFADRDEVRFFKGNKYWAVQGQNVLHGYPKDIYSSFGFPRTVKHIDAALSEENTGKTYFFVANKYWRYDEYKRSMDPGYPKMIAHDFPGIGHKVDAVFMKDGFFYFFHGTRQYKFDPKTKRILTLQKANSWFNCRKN
Assay: Inhibitory concentration against Matrix metalloprotease-1 (MMP-1)

IC50 [nM] | SMILES
679 | Cc1c(F)cccc1COc1ccc(S(=O)(=O)N2C[C@H](O)CC(C)(C)[C@@H]2C(=O)NO)cc1
1500 | CCc1ccccc1COc1ccc(S(=O)(=O)N2C[C@H](O)CC(C)(C)[C@@H]2C(=O)NO)cc1
100 | CC1(C)C[C@@H](O)CN(S(=O)(=O)c2ccc(OCc3ccc(Br)cc3)cc2)[C@H]1C(=O)NO
790 | Cc1ccc(F)cc1COc1ccc(S(=O)(=O)N2C[C@H](O)CC(C)(C)[C@@H]2C(=O)NO)cc1
198 | Cc1ccc(COc2ccc(S(=O)(=O)N3C[C@H](O)CC(C)(C)[C@@H]3C(=O)NO)cc2)cc1
715 | CC1(C)C[C@@H](O)CN(S(=O)(=O)c2ccc(OCc3ccccc3Br)cc2)[C@H]1C(=O)NO
430 | CC1(C)C[C@@H](O)CN(S(=O)(=O)c2ccc(OCc3ccc(Cl)cc3Cl)cc2)[C@H]1C(=O)NO
255 | Cc1cc(F)ccc1COc1ccc(S(=O)(=O)N2C[C@H](O)CC(C)(C)[C@@H]2C(=O)NO)cc1
2300 | CC(C)c1ccccc1COc1ccc(S(=O)(=O)N2C[C@H](O)CC(C)(C)[C@@H]2C(=O)NO)cc1
773 | Cc1cccc(COc2ccc(S(=O)(=O)N3C[C@H](O)CC(C)(C)[C@@H]3C(=O)NO)cc2)c1
690 | Cc1ccccc1COc1ccc(S(=O)(=O)N2C[C@H](O)CC(C)(C)[C@@H]2C(=O)NO)cc1

The remaining lines, values behind:

SMILES | IC50 [nM]
CC1(C)C[C@@H](O)CN(S(=O)(=O)c2ccc(OCc3ccnc4ccccc34)cc2)[C@H]1C(=O)NO | 170
CC1(C)C[C@@H](O)CN(S(=O)(=O)c2ccc(OCc3nccc4ccccc34)cc2)[C@H]1C(=O)NO | 290
Cc1ccc(F)cc1COc1ccc(S(=O)(=O)N2C[C@H](O)CC[C@@H]2C(=O)NO)cc1 | 5100
CC1(C)C[C@@H](O)CN(S(=O)(=O)c2ccc(OCc3ccc(F)cc3Cl)cc2)[C@H]1C(=O)NO | 592
CC1(C)C[C@@H](O)CN(S(=O)(=O)c2ccc(OCc3ccncc3Cl)cc2)[C@H]1C(=O)NO | 1100

Molecular target: Collagenase 3 (Homo sapiens, UniProt P45452)
Assay: Inhibitory concentration against Matrix metalloprotease-13 (MMP-13)

IC50 [nM] | SMILES
4.3 | Cc1c(F)cccc1COc1ccc(S(=O)(=O)N2C[C@H](O)CC(C)(C)[C@@H]2C(=O)NO)cc1
36 | CCc1ccccc1COc1ccc(S(=O)(=O)N2C[C@H](O)CC(C)(C)[C@@H]2C(=O)NO)cc1
1.4 | CC1(C)C[C@@H](O)CN(S(=O)(=O)c2ccc(OCc3ccc(Br)cc3)cc2)[C@H]1C(=O)NO
6.5 | Cc1ccc(F)cc1COc1ccc(S(=O)(=O)N2C[C@H](O)CC(C)(C)[C@@H]2C(=O)NO)cc1
1.2 | Cc1ccc(COc2ccc(S(=O)(=O)N3C[C@H](O)CC(C)(C)[C@@H]3C(=O)NO)cc2)cc1
8 | CC1(C)C[C@@H](O)CN(S(=O)(=O)c2ccc(OCc3ccccc3Br)cc2)[C@H]1C(=O)NO
3 | CC1(C)C[C@@H](O)CN(S(=O)(=O)c2ccc(OCc3ccc(Cl)cc3Cl)cc2)[C@H]1C(=O)NO
3.5 | Cc1cc(F)ccc1COc1ccc(S(=O)(=O)N2C[C@H](O)CC(C)(C)[C@@H]2C(=O)NO)cc1
188 | CC(C)c1ccccc1COc1ccc(S(=O)(=O)N2C[C@H](O)CC(C)(C)[C@@H]2C(=O)NO)cc1
2.8 | Cc1cccc(COc2ccc(S(=O)(=O)N3C[C@H](O)CC(C)(C)[C@@H]3C(=O)NO)cc2)c1
14 | Cc1ccccc1COc1ccc(S(=O)(=O)N2C[C@H](O)CC(C)(C)[C@@H]2C(=O)NO)cc1

The next lines start with the compound.

SMILES | IC50 [nM]
CC1(C)C[C@@H](O)CN(S(=O)(=O)c2ccc(OCc3ccnc4ccccc34)cc2)[C@H]1C(=O)NO | 7.8
CC1(C)C[C@@H](O)CN(S(=O)(=O)c2ccc(OCc3nccc4ccccc34)cc2)[C@H]1C(=O)NO | 53
Cc1ccc(F)cc1COc1ccc(S(=O)(=O)N2C[C@H](O)CC[C@@H]2C(=O)NO)cc1 | 2.1
CC1(C)C[C@@H](O)CN(S(=O)(=O)c2ccc(OCc3ccc(F)cc3Cl)cc2)[C@H]1C(=O)NO | 0.5
CC1(C)C[C@@H](O)CN(S(=O)(=O)c2ccc(OCc3ccncc3Cl)cc2)[C@H]1C(=O)NO | 19

Molecular target: not listed separately
Assay: Inhibitory concentration against Aggrecanase

IC50 [nM] | SMILES
3.9 | Cc1c(F)cccc1COc1ccc(S(=O)(=O)N2C[C@H](O)CC(C)(C)[C@@H]2C(=O)NO)cc1
67 | CCc1ccccc1COc1ccc(S(=O)(=O)N2C[C@H](O)CC(C)(C)[C@@H]2C(=O)NO)cc1
> 100 | CC1(C)C[C@@H](O)CN(S(=O)(=O)c2ccc(OCc3ccc(Br)cc3)cc2)[C@H]1C(=O)NO
40 | Cc1ccc(F)cc1COc1ccc(S(=O)(=O)N2C[C@H](O)CC(C)(C)[C@@H]2C(=O)NO)cc1
16 | CC1(C)C[C@@H](O)CN(S(=O)(=O)c2ccc(OCc3ccccc3Br)cc2)[C@H]1C(=O)NO
2.1 | CC1(C)C[C@@H](O)CN(S(=O)(=O)c2ccc(OCc3ccc(Cl)cc3Cl)cc2)[C@H]1C(=O)NO
2.7 | Cc1cc(F)ccc1COc1ccc(S(=O)(=O)N2C[C@H](O)CC(C)(C)[C@@H]2C(=O)NO)cc1
> 100 | Cc1cccc(COc2ccc(S(=O)(=O)N3C[C@H](O)CC(C)(C)[C@@H]3C(=O)NO)cc2)c1
38 | Cc1ccccc1COc1ccc(S(=O)(=O)N2C[C@H](O)CC(C)(C)[C@@H]2C(=O)NO)cc1

The remaining lines, values behind:

SMILES | IC50 [nM]
CC1(C)C[C@@H](O)CN(S(=O)(=O)c2ccc(OCc3ccnc4ccccc34)cc2)[C@H]1C(=O)NO | 15
CC1(C)C[C@@H](O)CN(S(=O)(=O)c2ccc(OCc3nccc4ccccc34)cc2)[C@H]1C(=O)NO | > 100
Cc1ccc(F)cc1COc1ccc(S(=O)(=O)N2C[C@H](O)CC[C@@H]2C(=O)NO)cc1 | 145
Cc1ncccc1COc1ccc(S(=O)(=O)N2C[C@H](O)CC(C)(C)[C@@H]2C(=O)NO)cc1 | 91
CC1(C)C[C@@H](O)CN(S(=O)(=O)c2ccc(OCc3ccncc3Cl)cc2)[C@H]1C(=O)NO | 18

Tested on: Cell line
Assay: Inhibitory concentration against TNF-alpha release in LPS-stimulated human whole blood
Type: functional, cell-based

IC50 [nM] | SMILES
2880 | Cc1c(F)cccc1COc1ccc(S(=O)(=O)N2C[C@H](O)CC(C)(C)[C@@H]2C(=O)NO)cc1
1100 | CCc1ccccc1COc1ccc(S(=O)(=O)N2C[C@H](O)CC(C)(C)[C@@H]2C(=O)NO)cc1
7700 | CC1(C)C[C@@H](O)CN(S(=O)(=O)c2ccc(OCc3ccc(Br)cc3)cc2)[C@H]1C(=O)NO
3450 | Cc1ccc(F)cc1COc1ccc(S(=O)(=O)N2C[C@H](O)CC(C)(C)[C@@H]2C(=O)NO)cc1
19200 | Cc1ccc(COc2ccc(S(=O)(=O)N3C[C@H](O)CC(C)(C)[C@@H]3C(=O)NO)cc2)cc1
8900 | CC1(C)C[C@@H](O)CN(S(=O)(=O)c2ccc(OCc3ccccc3Br)cc2)[C@H]1C(=O)NO
31000 | CC1(C)C[C@@H](O)CN(S(=O)(=O)c2ccc(OCc3ccc(Cl)cc3Cl)cc2)[C@H]1C(=O)NO
5480 | Cc1cc(F)ccc1COc1ccc(S(=O)(=O)N2C[C@H](O)CC(C)(C)[C@@H]2C(=O)NO)cc1
19000 | CC1(C)C[C@@H](O)CN(S(=O)(=O)c2ccc(OCc3cccc(Br)c3)cc2)[C@H]1C(=O)NO
1800 | CC(C)c1ccccc1COc1ccc(S(=O)(=O)N2C[C@H](O)CC(C)(C)[C@@H]2C(=O)NO)cc1
25800 | Cc1cccc(COc2ccc(S(=O)(=O)N3C[C@H](O)CC(C)(C)[C@@H]3C(=O)NO)cc2)c1
4900 | Cc1ccccc1COc1ccc(S(=O)(=O)N2C[C@H](O)CC(C)(C)[C@@H]2C(=O)NO)cc1

Further lines, the compound ahead of its results:

SMILES | IC50 [nM]
Cc1cnsc1COc1ccc(S(=O)(=O)N2C[C@H](O)CC(C)(C)[C@@H]2C(=O)NO)cc1 | 4950
CC1(C)C[C@@H](O)CN(S(=O)(=O)c2ccc(OCc3ccnc4ccccc34)cc2)[C@H]1C(=O)NO | 950
CC1(C)C[C@@H](O)CN(S(=O)(=O)c2ccc(OCc3nccc4ccccc34)cc2)[C@H]1C(=O)NO | 2420
Cc1ccc(F)cc1COc1ccc(S(=O)(=O)N2C[C@H](O)CC[C@@H]2C(=O)NO)cc1 | 1400
CC1(C)C[C@@H](O)CN(S(=O)(=O)c2ccc(OCc3ccc(F)cc3Cl)cc2)[C@H]1C(=O)NO | 10200
Cc1ncccc1COc1ccc(S(=O)(=O)N2C[C@H](O)CC(C)(C)[C@@H]2C(=O)NO)cc1 | 2000
Cc1nscc1COc1ccc(S(=O)(=O)N2C[C@H](O)CC(C)(C)[C@@H]2C(=O)NO)cc1 | 5200
CC1(C)C[C@@H](O)CN(S(=O)(=O)c2ccc(OCc3ccncc3Cl)cc2)[C@H]1C(=O)NO | 10200

Molecular target: Disintegrin and metalloproteinase domain-containing protein 17 (Homo sapiens, UniProt P78536)
Assay: Inhibitory concentration against TNF-alpha converting enzyme

Disintegrin and metalloproteinase domain-containing protein 17, sequence (P78536 whole entry, the tested form may be a part): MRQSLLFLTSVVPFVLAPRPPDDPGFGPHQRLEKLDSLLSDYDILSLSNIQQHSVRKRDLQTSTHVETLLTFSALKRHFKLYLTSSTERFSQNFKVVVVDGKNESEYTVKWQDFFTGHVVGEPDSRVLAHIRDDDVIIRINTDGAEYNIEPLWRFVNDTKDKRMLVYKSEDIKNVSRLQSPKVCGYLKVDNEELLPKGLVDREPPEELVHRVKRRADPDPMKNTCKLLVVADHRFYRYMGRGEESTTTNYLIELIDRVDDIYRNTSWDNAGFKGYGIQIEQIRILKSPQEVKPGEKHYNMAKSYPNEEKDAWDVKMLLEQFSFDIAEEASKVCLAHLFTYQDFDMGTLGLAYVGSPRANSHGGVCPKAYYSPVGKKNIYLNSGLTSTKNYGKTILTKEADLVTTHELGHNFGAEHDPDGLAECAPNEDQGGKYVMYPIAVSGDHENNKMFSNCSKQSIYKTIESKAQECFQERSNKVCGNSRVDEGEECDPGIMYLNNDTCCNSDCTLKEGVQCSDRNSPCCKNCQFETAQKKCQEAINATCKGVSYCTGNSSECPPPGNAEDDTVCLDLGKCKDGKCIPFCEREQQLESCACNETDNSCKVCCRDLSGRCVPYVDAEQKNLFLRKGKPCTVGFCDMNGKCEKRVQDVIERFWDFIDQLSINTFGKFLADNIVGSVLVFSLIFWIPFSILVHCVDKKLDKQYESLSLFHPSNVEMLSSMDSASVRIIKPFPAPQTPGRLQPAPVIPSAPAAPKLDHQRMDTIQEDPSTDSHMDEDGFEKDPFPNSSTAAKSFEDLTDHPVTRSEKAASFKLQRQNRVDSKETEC

IC50 [nM] | SMILES
17 | Cc1c(F)cccc1COc1ccc(S(=O)(=O)N2C[C@H](O)CC(C)(C)[C@@H]2C(=O)NO)cc1
6.7 | CCc1ccccc1COc1ccc(S(=O)(=O)N2C[C@H](O)CC(C)(C)[C@@H]2C(=O)NO)cc1
10 | CC1(C)C[C@@H](O)CN(S(=O)(=O)c2ccc(OCc3ccc(Br)cc3)cc2)[C@H]1C(=O)NO
7.3 | Cc1ccc(F)cc1COc1ccc(S(=O)(=O)N2C[C@H](O)CC(C)(C)[C@@H]2C(=O)NO)cc1
11 | Cc1ccc(COc2ccc(S(=O)(=O)N3C[C@H](O)CC(C)(C)[C@@H]3C(=O)NO)cc2)cc1
11 | CC1(C)C[C@@H](O)CN(S(=O)(=O)c2ccc(OCc3ccccc3Br)cc2)[C@H]1C(=O)NO
19 | CC1(C)C[C@@H](O)CN(S(=O)(=O)c2ccc(OCc3ccc(Cl)cc3Cl)cc2)[C@H]1C(=O)NO
5.2 | Cc1cc(F)ccc1COc1ccc(S(=O)(=O)N2C[C@H](O)CC(C)(C)[C@@H]2C(=O)NO)cc1
15 | CC1(C)C[C@@H](O)CN(S(=O)(=O)c2ccc(OCc3cccc(Br)c3)cc2)[C@H]1C(=O)NO
12 | CC(C)c1ccccc1COc1ccc(S(=O)(=O)N2C[C@H](O)CC(C)(C)[C@@H]2C(=O)NO)cc1
12 | Cc1cccc(COc2ccc(S(=O)(=O)N3C[C@H](O)CC(C)(C)[C@@H]3C(=O)NO)cc2)c1
7.3 | Cc1ccccc1COc1ccc(S(=O)(=O)N2C[C@H](O)CC(C)(C)[C@@H]2C(=O)NO)cc1

More lines, now with the values behind:

SMILES | IC50 [nM]
Cc1cnsc1COc1ccc(S(=O)(=O)N2C[C@H](O)CC(C)(C)[C@@H]2C(=O)NO)cc1 | 16
CC1(C)C[C@@H](O)CN(S(=O)(=O)c2ccc(OCc3nccc4ccccc34)cc2)[C@H]1C(=O)NO | 10
Cc1ccc(F)cc1COc1ccc(S(=O)(=O)N2C[C@H](O)CC[C@@H]2C(=O)NO)cc1 | 6.2
Cc1ncccc1COc1ccc(S(=O)(=O)N2C[C@H](O)CC(C)(C)[C@@H]2C(=O)NO)cc1 | 6.7
Cc1nscc1COc1ccc(S(=O)(=O)N2C[C@H](O)CC(C)(C)[C@@H]2C(=O)NO)cc1 | 12
